Legend:
Cyp1a/CYP1A enzymes = assay: TCDD treatment of mice: hepatic total P450, EROD and MROD induction; assay type: in vivo, mouse; conditions: for increase of total hepatic cytochrome P450: TCDD 10 µg/kg i.p., 48 hours
Protocol: Mice were given a single intraperitoneal dose of TCDD (10 µg/kg) or vehicle control (corn oil) and then euthanized 48 hours after the dosing using a rising concentration of CO2.
Microsomal fractions were prepared as previously described ([Henderson et al., 2019]). In brief, fresh liver samples were homogenized in ice-cold SET(Sucrose-EDTA-Tris) buffer (0.25 M sucrose, 5 mM EDTA, 20 mM Tris-HCL, pH 7.4; 9 ml buffer/g liver) and centrifuged at 2000 rpm (Sorvall RTH-250, 10 minutes, 4°C). The supernatant was centrifuged (12,000 rpm, Sorvall SS-34 rotor, 20 minutes, 4°C), the resulting supernatant was centrifuged (∼30,000 rpm, Sorvall TFT-45.6, 90 minutes, 4°C) (ThermoFisher Scientific, UK), and microsomal pellets were resuspended in ice-cold SET buffer and stored at −70°C.
Microsomal protein concentration fractions were measured using a modification of a previously described method ([Lowry et al., 1951]) and total hepatic microsomal P450 as previously described ([Omura and Sato, 1964]).
A mixture of ER (0.93 μM) or MR (0.46 μM) and liver microsomes (0.004–0.27 mg protein/ml) in 100 mM potassium phosphate buffer (pH 7.4) supplemented with MgCl2 (3.3 mM) was incubated at 37°C for 5 minutes before the reaction was initiated by injection of NADPH (final concentration, 1.2 mM). […] Activities in duodenum, ileum, jejunum, colon, lung, kidney, spleen, heart, brain, and testis microsomes were measured as described earlier except for the following adjustments: MR concentration was 1 μM, concentration of total microsomal protein in the reaction was in the range of 0.07–0.43 mg/ml, and amount of resorufin added to calculate the reaction product concentration was 40 pmol.

[1] = system: EROD activity of liver microsomes from vehicle-treated hCYP1A1/1A2 mice; assay: EROD in liver microsomes from vehicle-treated hCYP1A1/1A2 mice with quinidine; assay type: biochemical; conditions: hCYP1A1/1A2 humanized, mouse, pH 7.4
Protocol: (§1) Protein enzyme/concentrations were 3.46 pmol/ml for recombinant human CYP1A1, 10.8 pmol/ml for recombinant human CYP1A2, 0.05 mg protein/ml for liver microsomes from TCDD-treated hCYP1A1/1A2 mice, and 0.25 mg protein/ml for liver microsomes from TCDD-treated Cyp1 KO mice and vehicle-treated hCYP1A1/1A2 mice. Where needed, total protein concentration in the reaction mixtures was adjusted using Control Bactosomes (Cypex), so all reactions (including those with the recombinant cytochrome P450s) were carried out at a total protein concentration of 0.25 mg protein/ml. Generation of fluorescent product was registered in a kinetic mode (excitation filter, 530 nm; emission filter, 584 nm). Slopes of the linear part of the kinetic curves were calculated using Ascent Software version 2.4.1 (Labsystems). For each well with the reaction medium, there was a control well containing the reaction mixture with resorufin (40 pmol). Before addition of NADPH to the reaction wells, fluorescence was recorded both from the reaction and from the control wells. The average fluorescence was calculated, and the difference between wells with and without resorufin was used for the conversion of the relative fluorescence units to the picomoles of the reaction product.

[2] = system: liver microsomes from vehicle-treated hCYP1A1/1A2 mice; assay: MROD in liver microsomes from vehicle-treated hCYP1A1/1A2 mice with quinidine; assay type: biochemical, mouse; conditions: 200 μM quinidine
Protocol: as §1

recombinant human CYP1A2 [3] = molecular target: T1, recombinant human CYP1A2 (Homo sapiens, UniProt P05177); conditions: quinidine 0, 30, 200 μM
T1 sequence (P05177 1-516): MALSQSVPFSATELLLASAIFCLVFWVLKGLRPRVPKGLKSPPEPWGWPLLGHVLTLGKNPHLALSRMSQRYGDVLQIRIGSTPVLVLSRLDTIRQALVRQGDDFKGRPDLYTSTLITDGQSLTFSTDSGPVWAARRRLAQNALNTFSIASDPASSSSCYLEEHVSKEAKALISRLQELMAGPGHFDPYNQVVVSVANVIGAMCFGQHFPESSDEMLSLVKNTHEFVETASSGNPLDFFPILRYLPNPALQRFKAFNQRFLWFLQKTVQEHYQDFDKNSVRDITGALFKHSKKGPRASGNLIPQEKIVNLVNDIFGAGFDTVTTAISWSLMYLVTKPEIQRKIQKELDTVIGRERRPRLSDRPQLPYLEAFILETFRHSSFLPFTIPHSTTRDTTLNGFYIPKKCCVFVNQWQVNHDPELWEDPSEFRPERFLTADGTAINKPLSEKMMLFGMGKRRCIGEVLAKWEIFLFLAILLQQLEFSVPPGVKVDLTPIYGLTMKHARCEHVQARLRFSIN
Protocol: as §1

[4] = system: EROD activity, non-Cyp1a component of the liver microsomes; assay: in vitro; conditions: mouse, pH 7.4
Protocol: as §1

[5] = system: MROD activity, non-Cyp1a component of the liver microsomes; assay: in vitro; conditions: mouse, pH 7.4
Protocol: as §1

recombinant human CYP1A1 [6] = molecular target: T2, recombinant human CYP1A1 (Homo sapiens, UniProt P04798); assay: biochemical
T2 sequence (P04798 1-512): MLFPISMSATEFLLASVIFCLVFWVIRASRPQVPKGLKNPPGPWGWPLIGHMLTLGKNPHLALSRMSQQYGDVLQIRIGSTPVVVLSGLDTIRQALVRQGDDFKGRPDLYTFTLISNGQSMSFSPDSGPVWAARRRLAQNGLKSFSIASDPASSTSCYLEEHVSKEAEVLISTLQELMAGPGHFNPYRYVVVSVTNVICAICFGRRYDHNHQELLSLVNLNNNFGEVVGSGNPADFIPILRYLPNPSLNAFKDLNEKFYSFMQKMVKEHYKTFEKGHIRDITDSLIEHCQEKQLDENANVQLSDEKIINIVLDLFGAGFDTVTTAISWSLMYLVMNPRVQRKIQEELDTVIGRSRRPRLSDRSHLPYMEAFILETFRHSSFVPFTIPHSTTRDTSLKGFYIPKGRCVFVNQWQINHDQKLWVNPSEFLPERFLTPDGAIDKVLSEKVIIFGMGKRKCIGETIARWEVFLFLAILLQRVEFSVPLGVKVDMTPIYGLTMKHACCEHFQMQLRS
Protocol: (§2) Slopes of the linear part of the kinetic curves were calculated using Ascent Software version 2.4.1 (Labsystems).
(§3) Where needed, total protein concentration in the reaction mixtures was adjusted using Control Bactosomes (Cypex), so all reactions (including those with the recombinant cytochrome P450s) were carried out at a total protein concentration of 0.25 mg protein/ml. […] Slopes of the linear part of the kinetic curves were calculated using Ascent Software version 2.4.1 (Labsystems). For each well with the reaction medium, there was a control well containing the reaction mixture with resorufin (40 pmol). Before addition of NADPH to the reaction wells, fluorescence was recorded both from the reaction and from the control wells. The average fluorescence was calculated, and the difference between wells with and without resorufin was used for the conversion of the relative fluorescence units to the picomoles of the reaction product.

recombinant human CYP1A1 [7] = molecular target: T2, recombinant human CYP1A1; assay: MROD by recombinant human CYP1A1, inhibition by quinidine; conditions: rCYP1A1
Protocol: as §2, §3

recombinant human CYP1A2 [8] = molecular target: T1, recombinant human CYP1A2; assay: MROD by recombinant human CYP1A2, inhibition by quinidine; conditions: quinidine 0, 30, 200 μM
Protocol: as §2, §3

recombinant human CYP1A1 [9] = molecular target: T2, recombinant human CYP1A1; assay: EROD by recombinant human CYP1A1 with and without quinidine
Protocol: as §3

[10] = Microsomal stability in mouse liver microsomes (WT, Cyp1a KO, hCYP1A1/1A2)
Protocol: The reaction was started by addition of 200 μl of NADPH to the remaining mixture of ramelteon with microsomes, and 100-μl aliquots were taken at 1, 2, 5, 10, 15, 20, and 30 minutes after the reaction start; mixed with an equal volume of ice-cold methanol containing the internal standard; incubated on ice for at least 20 minutes; and centrifuged for 15 minutes at 16,000 rcf and +4°C on Centrifuge 5415 R (Eppendorf, Hamburg, Germany). Control incubations were carried out without the cofactor or microsomes. The concentration of ramelteon in the supernatant was measured by high-performance liquid chromatography–tandem mass spectrometry (MS/MS). Chromatographic separation was performed on a Prodigy Phenyl-3 column (5 μm, 50 × 2.0 mm; Phenomenex) using an injection volume of 10 μl and a run time of 7 minutes. Mobile phase consisted of 0.1% solutions of formic acid in water (solvent A) and acetonitrile (solvent B). For elution, a linear gradient from 20% to 60% of solvent B in 4 minutes was used, followed by 3-minute equilibration at 20% B. The multiple reaction monitoring parameters for ramelteon and tacrine were 260.28, 199.2 (precursor ion) and 204.21, 171.11 (product ion), respectively. The concentrations of ramelteon were calculated from the calibration curve.

[11] = hCYP1A1/1A2 mice, liver microsomes

## Clc1cc2c(cc1Cl)Oc1cc(Cl)c(Cl)cc1O2 [TCDD, 2,3,7,8-tetrachlorodibenzo-p-dioxin]
Cyp1a/CYP1A enzymes; Cyp1a KO line, liver microsomes
  increase in MROD activity: 4.6 fold
Cyp1a/CYP1A enzymes; Cyp1a KO liver
  increase in EROD activity relative to untreated animals: 3 fold
Cyp1a/CYP1A enzymes; Cyp1a KO mice
  change in total P450 on TCDD treatment: no change
Cyp1a/CYP1A enzymes; TCDD-treated hCYP1A1/1A2 mice
  concentration of hepatic CYP1A1 estimated from EROD Vmax/kcat: 59 pmol/mg microsomal protein
Cyp1a/CYP1A enzymes; WT mice
  CYP1A enzymes as share of total hepatic P450 content after TCDD: 58%
  increase of total hepatic cytochrome P450: 2.37 fold
Cyp1a/CYP1A enzymes; WT mice, liver microsomes
  increase in EROD activity relative to untreated animals: ~114 fold
  increase in MROD activity: 44 fold
  total hepatic cytochrome P450 after TCDD: 840 pmol/mg protein
Cyp1a/CYP1A enzymes; hCYP1A1/1A2 mice
  CYP1A enzymes as share of total hepatic P450 content after TCDD: 46%
  increase of total hepatic cytochrome P450: 1.84 fold
Cyp1a/CYP1A enzymes; [11]
  increase in EROD activity relative to untreated animals: 39 fold
  increase in MROD activity: 31 fold
  total hepatic cytochrome P450 after TCDD: 632 pmol/mg protein

## C=C[C@H]1C[N@@]2CC[C@H]1C[C@@H]2[C@@H](O)c1ccnc2ccc(OC)cc12 [quinidine]
[1]
  inhibition at 200 μM: ~20%
[2]
  effect on MROD: not affected
Recombinant human CYP1A2 [3]
  inhibition of EROD activity catalyzed by CYP1A2: did not inhibit
[4]; Cyp1a KO
  Ki: > 200 µM
[4]
  Ki: 422 ± 18 µM
[5]; Cyp1a KO
  Ki: > 200 µM
[5]
  Ki: 272 ± 28 µM
Recombinant human CYP1A1 [6]
  IC50: 5.8 µM
  Ki: 2.2 ± 0.18 µM
Recombinant human CYP1A1 [7]
  Quinidine Inhibition Type: Competitive
Recombinant human CYP1A2 [8]
  inhibition of MROD activity catalyzed by CYP1A2: did not inhibit
Recombinant human CYP1A1 [9]
  Ki: 3.3 ± 0.35 µM
Recombinant human CYP1A1 [9]; EROD, rCYP1A1
  Quinidine Inhibition Type: Mixed
Recombinant human CYP1A1 [9]; EROD, rCYP1A1, effect of inhibitor binding on substrate binding
  α: 31 ± 8

## Nc1c2c(nc3ccccc13)CCCC2 [tacrine]
[10]; WT mice liver microsomes, eqs. 15 and 16
  fraction metabolized by Cyp1a2: ~0.68
[10]; hCYP1A1/1A2, mouse, microsomes, 1 µM, pH 7.4
  fraction metabolized by CYP1A2: ~0.60

From publication PMC6657216, “Defining the Contribution of CYP1A1 and CYP1A2 to Drug Metabolism Using Humanized CYP1A1/1A2 and Cyp1a1/Cyp1a2 Knockout Mice” (Drug Metabolism and Disposition, 2019)
